The values that follow come from patent US20160219881A1, “HERBICIDALLY ACTIVE 2-HALOGEN-4-ALKYNYL-PHENYL-PYRAZOLIDINE-DIONE OR PYRROLIDINE-DIONE DERIVATIVES” (SYNGENTA LIMITED, priority 2013, published 2016).

Assay [1] relates to Avena fatua (AVEFA). Put plainly: Test 1A glasshouse assay, pre-emergence herbicidal activity. In kind it is in vivo. As to conditions: 312 h, 250 g/ha, 13 days after application, read-out: Pre-Emergence Herbicidal Activity (% Phytotoxicity) AVEFA. Here is the method: (§1) Seeds of a variety of test species are sown in standard soil (usually sandy soil) in pots. After cultivation for one day (pre-emergence) or after 8 days cultivation (post-emergence) under controlled conditions in a glasshouse (at 24/16° C., day/night; 14 hours light; 65% humidity), the plants are sprayed with an aqueous spray solution derived from the formulation of the technical active ingredient (compound) in acetone/water (50:50) solution containing 0.5% Tween 20 (polyoxyethylene sorbitan monolaurate, CAS RN 9005-64-5). The test plants are then grown under controlled conditions in a glasshouse (at 24/16° C., day/night; 14 hours light; 65% humidity) and watered twice daily. 13 days after application of the test compounds, for pre- and post-emergence, the test is evaluated visually for percentage phytotoxicity to each plant (where 100%=total damage to plant; 0%=no damage to plant).
(§2) Lolium perenne (LOLPE), Triticum aestivum (TRZAW, winter wheat), Alopecurus myosuroides (ALOMY), Echinochloa crus-galli (ECHCG), and Avena fatua (AVEFA). All these are grassy monocotyledonous weeds and/or (for wheat) grassy crops.

Assay [2] has as its system Lolium perenne (LOLPE). Described as above. In kind it is in vivo. As to conditions: 312 h, 250 g/ha, 13 days after application, read-out: Pre-Emergence Herbicidal Activity (% Phytotoxicity) LOLPE. Here is the method:
as §1, §2

Assay [3] deals with Triticum aestivum (TRZAW, winter wheat). The description is as above. Type of assay: in vivo. As to conditions: 312 h, 250 g/ha, 13 days after application, read-out: Pre-Emergence Herbicidal Activity (% Phytotoxicity) TRZAW. On the procedure: as §1, §2
For assay [4], the system named is Triticum aestivum (TRZAW, winter wheat, variety ‘Hereward’). Put plainly: Test 1A glasshouse assay, post-emergence herbicidal activity. As to conditions: 312 h, 250 g/ha, 13 days after application, read-out: Post-Emergence Herbicidal Activity (% Phytotoxicity) TRZAW. In kind it is in vivo. Here is the method: as §1
(§3) Lolium perenne (LOLPE), Triticum aestivum (TRZAW, winter wheat, variety ‘Hereward’), Alopecurus myosuroides (ALOMY), Echinochloa crus-galli (ECHCG), and Avena fatua (AVEFA). All these are grassy monocotyledonous weeds and/or (for wheat) grassy crops.

Assay [5] has as its system Avena fatua (AVEFA). The description is as above. Type of assay: in vivo. As to conditions: 312 h, 250 g/ha, 13 days after application, read-out: Post-Emergence Herbicidal Activity (% Phytotoxicity) AVEFA. On the procedure:
as §1, §3

Assay [6] has as its system Lolium perenne (LOLPE). Described as above. In kind it is in vivo. As to conditions: 312 h, 250 g/ha, 13 days after application, read-out: Post-Emergence Herbicidal Activity (% Phytotoxicity) LOLPE. Here is the method:
as §1, §3

Assay [7] deals with Alopecurus myosuroides (ALOMY). Put plainly: Test 1A glasshouse assay, pre-emergence herbicidal activity. Type of assay: in vivo. As to conditions: 312 h, 250 g/ha, 13 days after application, read-out: Pre-Emergence Herbicidal Activity (% Phytotoxicity) ALOMY. Here is the method: as §1
Alopecurus myosuroides (ALOMY), Setaria faberi (SETFA), Echinochloa crus-galli (ECHCG), Amaranthus retroflexus (AMARE), and Abutilon theophasti Medik. (ABUTH, common English name “velvetleaf”). Of these, Alopecurus myosuroides (ALOMY), Setaria faberi (SETFA), and Echinochloa crus-galli (ECHCG) are grassy monocotyledonous weeds.
as §2

For assay [8], the system named is Echinochloa crus-galli (ECHCG). Put plainly: Test 1A glasshouse assay, post-emergence herbicidal activity. Type of assay: in vivo. As to conditions: 312 h, 250 g/ha, 13 days after application, read-out: Post-Emergence Herbicidal Activity (% Phytotoxicity) ECHCG. Here is the method: as §1
(§4) Alopecurus myosuroides (ALOMY), Setaria faberi (SETFA), Echinochloa crus-galli (ECHCG), Amaranthus retroflexus (AMARE), and Abutilon theophasti Medik. (ABUTH, common English name “velvetleaf”). Of these, Alopecurus myosuroides (ALOMY), Setaria faberi (SETFA), and Echinochloa crus-galli (ECHCG) are grassy monocotyledonous weeds. […]

The subject of assay [9] is Alopecurus myosuroides (ALOMY). Described as above. As to conditions: 312 h, 250 g/ha, 13 days after application, read-out: Post-Emergence Herbicidal Activity (% Phytotoxicity) ALOMY. Type of assay: in vivo. Here is the method:
as §1, §4

Assay [10] deals with Echinochloa crus-galli (ECHCG). Put plainly: Test 1A glasshouse assay, pre-emergence herbicidal activity. Type of assay: in vivo. As to conditions: 312 h, 250 g/ha, 13 days after application, read-out: Pre-Emergence Herbicidal Activity (% Phytotoxicity) ECHCG. Here is the method:
as §1, §4

For assay [11], the system named is Johnsongrass (Sorghum halepense). As to conditions: gibberellic acid mixed with clethodim; cited from earlier work.
Assay [12] has as its system volunteer corn. As to conditions: gibberellic acid mixed with clethodim; cited from earlier work.

On to `CC#Cc1cc(C)c(C2C(=O)CN(Cc3ccccn3)C2=O)c(C)c1` (stereo not drawn) [Compound A48, 3-(2,6-dimethyl-4-prop-1-ynyl-phenyl)-1-(2-pyridylmethyl)pyrrolidine-2,4-dione], for which the inhibition at 250 g/ha in assay [1] was determined as 40%; in [2], 80%; in assay [3], 40%; in assay [4], 30%; in [5] it was 20%; in assay [6] it was 70%. Moreover, the inhibition at 250 g/ha in assay [7] worked out at 90%; in assay [8], 70%; in assay [9], 90%; in [10], 80%.

As to `C=C1C[C@]23C[C@@]1(O)CC[C@H]2[C@@]12C=C[C@H](O)[C@@](C)(C(=O)O1)[C@H]2[C@@H]3C(=O)O` [gibberellic acid], in assay [11], the “control and/or speed of control of Johnsongrass (Sorghum halepense)” value is recorded as “increased clethodim's control and/or speed of control”. The “control and/or speed of control of volunteer corn” value in assay [12] is “increased clethodim's control and/or speed of control”.
